Experimental data as given in patent US20250108038A1 (priority 2023, published 2025).
“And” between values parts separate entries of the source, which are not always exact repeats. Identical values can stand only once. Like-named read-outs stand apart in the source and are kept apart here.

Experiments:
[1] = Experimental: Twelve male Wistar Han rats were divided into 4 groups, n=3 per group.
Dose solutions were prepared freshly on the day of study prior to dosing.
The animals were weighed immediately prior to dosing and the dose volume was calculated individually based the obtained body weight and the nominal dose volume. […] The test articles were administered either orally by gavage, or intraperitoneally by injection. The nominal dose volume was 10 mL/kg for both compounds and both routes.
Cage side observation was performed before and after dosing as well as at each scheduled sample collection. The observation included appearance, posture, behavior, morbidity and mortality. Abnormal findings, if any, were recorded in the study notebook and communicated with study director, veterinarian, and Supernus if necessary.
Approximately 100 μL blood was collected at each scheduled time point from jugular veins. The actual sample collection time was within 1 min. of the nominal time for collections prior to or at 1 hour, and within 5% of the nominal time for collections post 1 hour.
The blood samples were placed in pre-labeled micro-centrifuge tubes containing K2EDTA as anticoagulant and kept on ice, and then were processed to plasma within 30 minutes of collection by centrifugation at 4° C., 3000 g for 5 minutes, and then stored at −70±10° C. until analysis by LC-MS/MS.
Plasma concentrations below the LLOQ prior to Tmax were set to zero, and those after Tmax were excluded from PK calculation. The nominal dose and the nominal sample collection time were used for the calculation. The values of plasma concentrations and PK parameters are reported to three significant figures. The average values of each treatment group are presented as mean±SD.

OATP1B1 = target: T1, OATP1B1 (Homo sapiens, UniProt Q9Y6L6); experiment: Uptake transporter inhibition assay, OATP1B1 (estradiol-17-β-glucuronide)
T1 sequence (Q9Y6L6 1-691): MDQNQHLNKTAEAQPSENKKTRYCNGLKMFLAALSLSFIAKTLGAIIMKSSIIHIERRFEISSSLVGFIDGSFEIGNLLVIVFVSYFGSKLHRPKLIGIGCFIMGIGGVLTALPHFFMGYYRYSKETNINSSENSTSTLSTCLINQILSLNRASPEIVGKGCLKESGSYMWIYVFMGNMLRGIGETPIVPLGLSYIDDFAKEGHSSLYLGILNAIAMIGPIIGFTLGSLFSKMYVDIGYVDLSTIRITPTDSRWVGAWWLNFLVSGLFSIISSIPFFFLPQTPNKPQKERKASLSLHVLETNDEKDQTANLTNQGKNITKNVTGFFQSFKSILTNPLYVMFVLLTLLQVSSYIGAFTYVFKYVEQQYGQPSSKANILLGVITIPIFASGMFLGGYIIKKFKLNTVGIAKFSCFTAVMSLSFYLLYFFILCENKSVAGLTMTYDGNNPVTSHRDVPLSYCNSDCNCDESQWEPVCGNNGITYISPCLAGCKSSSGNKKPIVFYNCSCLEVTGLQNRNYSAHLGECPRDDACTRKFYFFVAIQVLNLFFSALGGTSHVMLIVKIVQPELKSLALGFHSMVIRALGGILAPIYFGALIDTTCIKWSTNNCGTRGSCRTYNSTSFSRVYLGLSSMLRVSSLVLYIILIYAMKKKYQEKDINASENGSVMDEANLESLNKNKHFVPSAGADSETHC
Experimental: Uptake experiments were performed using HEK293 cells stably expressing the respective uptake transporters. The assays were conducted according to the actual SOLVO uptake transporter assay protocols (PR-ASY-UPT-General Protocol for Uptake Transporter Inhibition Assays).
Cells were cultured at 37° C. in a humidified atmosphere containing 5% CO2 and were plated onto standard 96-well tissue culture plates.
Before the experiment, the medium was removed, and the cells were washed twice with 100 μL of pre-warmed (37° C.) assay buffer listed in Table 15. The cells were pre-incubated at 37° C. for 30 minutes in assay buffer containing the test article at appropriate concentrations (Table 16), appropriate solvents for solvent controls and the reference inhibitor for reference inhibitor wells. After the pre-incubation step solutions were removed. Uptake experiments were performed at 37° C. in 50 μL of assay buffer containing the probe substrate and the test article or solvent and controls.
After the experiment, cells were washed twice with 100 μL of appropriate cold buffer and lysed with 150 μL scintillation cocktail. Radiolabeled probe substrate transport was determined by liquid scintillation counting.
Uptake of the probe substrate in control cells provided background activity values for all data points.

[2] = single IP Compound I-19 4.061 mg/kg, male Wistar Han rats, individual animals
[3] = single IP Compound I-19 4.061 mg/kg, male Wistar Han rats, mean
[4] = single PO Compound I-19 4.061 mg/kg, male Wistar Han rats, individual animals
[5] = single PO Compound I-19 4.061 mg/kg, male Wistar Han rats, mean
[6] = 0.14 μM nominal, 0.09 μM NSB corrected, follow-up assay
[7] = 1.24 μM nominal, 0.86 μM NSB corrected, follow-up assay
[8] = 10.00 μM nominal, 6.60 μM NSB corrected
[9] = 11.11 μM nominal, 7.89 μM NSB corrected, follow-up assay
[10] = 33.33 μM nominal, 24.33 μM NSB corrected, follow-up assay
[11] = 100.00 μM nominal, 77.00 μM NSB corrected
[12] = 100.00 μM nominal, 100.00 μM NSB corrected, follow-up assay
[13] = […] nominal, 1.89 μM NSB corrected, follow-up assay

Structure (SMILES): Clc1ccc(C2(OCC3OCCO3)c3ccccc3C3=NCCN32)cc1 (stereo not drawn) [Compound I-19]
- plasma concentration of Compound I-19 ([1]; 0.500 h, single IP Compound I-19 4.061 mg/kg, male Wistar Han rats, individual animals): 150 ng/mL and 193 ng/mL and 136 ng/mL
- plasma concentration of Compound I-19 ([1]; 0.500 h, single IP Compound I-19 4.061 mg/kg, male Wistar Han rats, mean): 160 ng/mL
- plasma concentration of Compound I-19 ([1]; 2.00 h, single IP Compound I-19 4.061 mg/kg, male Wistar Han rats, individual animals): 126 ng/mL and 144 ng/mL and 188 ng/mL
- plasma concentration of Compound I-19 ([1]; 2.00 h, single IP Compound I-19 4.061 mg/kg, male Wistar Han rats, mean): 153 ng/mL
- plasma concentration of Compound I-19 ([1]; 2.00 h, single PO Compound I-19 4.061 mg/kg, male Wistar Han rats, individual animals): BQL
- plasma concentration of Compound I-19 ([1]; 4.00 h, single IP Compound I-19 4.061 mg/kg, male Wistar Han rats, individual animals): 73.3 ng/mL and 69.9 ng/mL and 91.6 ng/mL
- plasma concentration of Compound I-19 ([1]; 4.00 h, single IP Compound I-19 4.061 mg/kg, male Wistar Han rats, mean): 78.3 ng/mL
- plasma concentration of Compound I-19 ([1]; 4.00 h, single PO Compound I-19 4.061 mg/kg, male Wistar Han rats, individual animals): BQL
- plasma concentration of Compound I-19 ([1]; 8.00 h, single IP Compound I-19 4.061 mg/kg, male Wistar Han rats, individual animals): 6.11 ng/mL and 10.1 ng/mL and 10.7 ng/mL
- plasma concentration of Compound I-19 ([1]; 8.00 h, single IP Compound I-19 4.061 mg/kg, male Wistar Han rats, mean): 8.97 ng/mL
- plasma concentration of Compound I-19 ([1]; 8.00 h, single PO Compound I-19 4.061 mg/kg, male Wistar Han rats, individual animals): BQL
- plasma concentration of Compound I-19 ([1]; 24.0 h, single IP Compound I-19 4.061 mg/kg, male Wistar Han rats, individual animals): BQL
- plasma concentration of Compound I-19 ([1]; 24.0 h, single PO Compound I-19 4.061 mg/kg, male Wistar Han rats, individual animals): BQL
- plasma concentration of Compound I-19 ([1]; […] h, single IP Compound I-19 4.061 mg/kg, male Wistar Han rats, mean): 168 ng/mL
- Clinical observation (tolerability) ([1]; male Wistar Han rats, PO and IP, administered dosages): well tolerated
- T1/2 of the administered compound ([1]; rat, in vivo, ip): 1.43 ± 0.107 h
- AUC0-inf of Compound I-19 [1, 2]: 584 ng·h/mL and 660 ng·h/mL and 771 ng·h/mL
- AUC0-last of Compound I-19 [1, 2]: 572 ng·h/mL and 637 ng·h/mL and 749 ng·h/mL
- Cmax of Compound I-19 [1, 2]: 158 ng/mL and 193 ng/mL and 192 ng/mL
- MRT0-inf of Compound I-19 [1, 2]: 2.63 h and 2.73 h and 2.80 h
- MRT0-last of Compound I-19 [1, 2]: 2.48 h and 2.47 h and 2.59 h
- T1/2 of Compound I-19 [1, 2]: 1.33 h and 1.54 h and 1.43 h
- Tlast of Compound I-19 [1, 2]: 8.00 h
- Tmax of Compound I-19 [1, 2]: 0.500 h
- AUC0-inf of Compound I-19 [1, 3]: 672 ng·h/mL
- AUC0-last of Compound I-19 [1, 3]: 653 ng·h/mL
- Cmax of Compound I-19 [1, 3]: 181 ng/mL
- MRT0-inf of Compound I-19 [1, 3]: 2.72 h
- MRT0-last of Compound I-19 [1, 3]: 2.51 h
- T1/2 of Compound I-19 [1, 3]: 1.43 h
- Tlast of Compound I-19 [1, 3]: 8.00 h
- Tmax of Compound I-19 [1, 3]: 0.583 h
- AUC0-last of Compound I-19 [1, 4]: 0.510 ng·h/mL and 0.285 ng·h/mL
- Cmax of Compound I-19 [1, 4]: 1.02 ng/mL and 1.14 ng/mL
- MRT0-last of Compound I-19 [1, 4]: 1.00 h and 0.500 h
- Tlast of Compound I-19 [1, 4]: 1.00 h and 0.500 h
- Tmax of Compound I-19 [1, 4]: 0.500 h
- AUC0-last of Compound I-19 [1, 5]: 0.398 ng·h/mL
- Cmax of Compound I-19 [1, 5]: 1.08 ng/mL
- MRT0-last of Compound I-19 [1, 5]: 0.750 h
- Tlast of Compound I-19 [1, 5]: 0.750 h
- Relative inhibition (OATP1B1; [6]): 0%
- Relative transporter specific accumulation (OATP1B1; [6]): 99.91 ± 3.20 % of control
- Transporter specific accumulation (OATP1B1; [6]): 2,252.33 ± 16.07 cpm
- Relative inhibition (OATP1B1; [7]): 3%
- Relative transporter specific accumulation (OATP1B1; [7]): 96.63 ± 3.76 % of control
- Transporter specific accumulation (OATP1B1; [7]): 2,178.33 ± 50.48 cpm
- Relative inhibition (OATP1B1; [8]): 25%
- Relative transporter specific accumulation (OATP1B1; [8]): 75.21 ± 2.39 % of control
- Transporter specific accumulation (OATP1B1; [8]): 2,303.00 ± 45.84 cpm
- Relative inhibition (OATP1B1; [9]): 23%
- Relative transporter specific accumulation (OATP1B1; [9]): 77.32 ± 2.52 % of control
- Transporter specific accumulation (OATP1B1; [9]): 1,743.00 ± 16.09 cpm
- Relative inhibition (OATP1B1; [10]): 50%
- Relative transporter specific accumulation (OATP1B1; [10]): 49.83 ± 2.48 % of control
- Transporter specific accumulation (OATP1B1; [10]): 1,123.33 ± 43.53 cpm
- Relative inhibition (OATP1B1; [11]): 87%
- Relative transporter specific accumulation (OATP1B1; [11]): 12.92 ± 0.41 % of control
- Transporter specific accumulation (OATP1B1; [11]): 395.67 ± 8.05 cpm
- Relative inhibition (OATP1B1; [12]): 83%
- Relative transporter specific accumulation (OATP1B1; [12]): 16.93 ± 0.58 % of control
- Transporter specific accumulation (OATP1B1; [12]): 381.67 ± 5.50 cpm
- maximum inhibition of OATP1B1-mediated E217βG accumulation (OATP1B1; 2-concentration assay, up to 100 μM (Compound A up to 30 μM)): 87%
- Maximum % inhibition (OATP1B1; OATP1B1, HEK293 cells, E217βG (1 μM), NIO: no inhibition observed): 83%
- Relative inhibition (OATP1B1; [13]): 5%
- Relative transporter specific accumulation (OATP1B1; [13]): 95.49 ± 3.39 % of control
- Transporter specific accumulation (OATP1B1; [13]): 2,152.67 ± 36.09 cpm
- maximum inhibition of OATP1B1-mediated E217βG accumulation (OATP1B1; follow-up assay): 83%
- IC50 (OATP1B1; follow-up assay, NSB-corrected concentrations): 31.4 µM
